The values that follow come from ChEMBL document CHEMBL1138727 (Bioorg Med Chem Lett, 2004).

For assay [1], the target named is Serine/threonine-protein kinase mTOR (Homo sapiens, UniProt P42345). In words: Inhibition of Mammalian target of Rapamycin mTOR.
Assay [2] addresses Phosphatidylinositol 4,5-bisphosphate 3-kinase catalytic subunit alpha isoform (Homo sapiens, UniProt P42336). As to the kind of experiment: Inhibition of Phosphatidylinositol 3-kinase p110 alpha subunit.
The target of assay [3] is Serine-protein kinase ATM (Homo sapiens, UniProt Q13315). In words: Inhibition of Mutated in ataxia telangiectasia protein ATM kinase.
Assay [4] deals with Serine/threonine-protein kinase ATR (Homo sapiens, UniProt Q13535). As to the kind of experiment: Inhibition of Ataxia telangiectasia related protein ATR kinase.
Assay [5] addresses T1, DNA-dependent protein kinase catalytic subunit (Homo sapiens, UniProt P78527). In words: Inhibitory activity against DNA-dependent protein kinase (DNA-PK) at 0.5 uM.
Assay [6] has as its target T1, DNA-dependent protein kinase catalytic subunit. As to the kind of experiment: Inhibitory activity against DNA-dependent protein kinase (DNA-PK).

Sequence of Serine/threonine-protein kinase ATR (Q13535 whole entry): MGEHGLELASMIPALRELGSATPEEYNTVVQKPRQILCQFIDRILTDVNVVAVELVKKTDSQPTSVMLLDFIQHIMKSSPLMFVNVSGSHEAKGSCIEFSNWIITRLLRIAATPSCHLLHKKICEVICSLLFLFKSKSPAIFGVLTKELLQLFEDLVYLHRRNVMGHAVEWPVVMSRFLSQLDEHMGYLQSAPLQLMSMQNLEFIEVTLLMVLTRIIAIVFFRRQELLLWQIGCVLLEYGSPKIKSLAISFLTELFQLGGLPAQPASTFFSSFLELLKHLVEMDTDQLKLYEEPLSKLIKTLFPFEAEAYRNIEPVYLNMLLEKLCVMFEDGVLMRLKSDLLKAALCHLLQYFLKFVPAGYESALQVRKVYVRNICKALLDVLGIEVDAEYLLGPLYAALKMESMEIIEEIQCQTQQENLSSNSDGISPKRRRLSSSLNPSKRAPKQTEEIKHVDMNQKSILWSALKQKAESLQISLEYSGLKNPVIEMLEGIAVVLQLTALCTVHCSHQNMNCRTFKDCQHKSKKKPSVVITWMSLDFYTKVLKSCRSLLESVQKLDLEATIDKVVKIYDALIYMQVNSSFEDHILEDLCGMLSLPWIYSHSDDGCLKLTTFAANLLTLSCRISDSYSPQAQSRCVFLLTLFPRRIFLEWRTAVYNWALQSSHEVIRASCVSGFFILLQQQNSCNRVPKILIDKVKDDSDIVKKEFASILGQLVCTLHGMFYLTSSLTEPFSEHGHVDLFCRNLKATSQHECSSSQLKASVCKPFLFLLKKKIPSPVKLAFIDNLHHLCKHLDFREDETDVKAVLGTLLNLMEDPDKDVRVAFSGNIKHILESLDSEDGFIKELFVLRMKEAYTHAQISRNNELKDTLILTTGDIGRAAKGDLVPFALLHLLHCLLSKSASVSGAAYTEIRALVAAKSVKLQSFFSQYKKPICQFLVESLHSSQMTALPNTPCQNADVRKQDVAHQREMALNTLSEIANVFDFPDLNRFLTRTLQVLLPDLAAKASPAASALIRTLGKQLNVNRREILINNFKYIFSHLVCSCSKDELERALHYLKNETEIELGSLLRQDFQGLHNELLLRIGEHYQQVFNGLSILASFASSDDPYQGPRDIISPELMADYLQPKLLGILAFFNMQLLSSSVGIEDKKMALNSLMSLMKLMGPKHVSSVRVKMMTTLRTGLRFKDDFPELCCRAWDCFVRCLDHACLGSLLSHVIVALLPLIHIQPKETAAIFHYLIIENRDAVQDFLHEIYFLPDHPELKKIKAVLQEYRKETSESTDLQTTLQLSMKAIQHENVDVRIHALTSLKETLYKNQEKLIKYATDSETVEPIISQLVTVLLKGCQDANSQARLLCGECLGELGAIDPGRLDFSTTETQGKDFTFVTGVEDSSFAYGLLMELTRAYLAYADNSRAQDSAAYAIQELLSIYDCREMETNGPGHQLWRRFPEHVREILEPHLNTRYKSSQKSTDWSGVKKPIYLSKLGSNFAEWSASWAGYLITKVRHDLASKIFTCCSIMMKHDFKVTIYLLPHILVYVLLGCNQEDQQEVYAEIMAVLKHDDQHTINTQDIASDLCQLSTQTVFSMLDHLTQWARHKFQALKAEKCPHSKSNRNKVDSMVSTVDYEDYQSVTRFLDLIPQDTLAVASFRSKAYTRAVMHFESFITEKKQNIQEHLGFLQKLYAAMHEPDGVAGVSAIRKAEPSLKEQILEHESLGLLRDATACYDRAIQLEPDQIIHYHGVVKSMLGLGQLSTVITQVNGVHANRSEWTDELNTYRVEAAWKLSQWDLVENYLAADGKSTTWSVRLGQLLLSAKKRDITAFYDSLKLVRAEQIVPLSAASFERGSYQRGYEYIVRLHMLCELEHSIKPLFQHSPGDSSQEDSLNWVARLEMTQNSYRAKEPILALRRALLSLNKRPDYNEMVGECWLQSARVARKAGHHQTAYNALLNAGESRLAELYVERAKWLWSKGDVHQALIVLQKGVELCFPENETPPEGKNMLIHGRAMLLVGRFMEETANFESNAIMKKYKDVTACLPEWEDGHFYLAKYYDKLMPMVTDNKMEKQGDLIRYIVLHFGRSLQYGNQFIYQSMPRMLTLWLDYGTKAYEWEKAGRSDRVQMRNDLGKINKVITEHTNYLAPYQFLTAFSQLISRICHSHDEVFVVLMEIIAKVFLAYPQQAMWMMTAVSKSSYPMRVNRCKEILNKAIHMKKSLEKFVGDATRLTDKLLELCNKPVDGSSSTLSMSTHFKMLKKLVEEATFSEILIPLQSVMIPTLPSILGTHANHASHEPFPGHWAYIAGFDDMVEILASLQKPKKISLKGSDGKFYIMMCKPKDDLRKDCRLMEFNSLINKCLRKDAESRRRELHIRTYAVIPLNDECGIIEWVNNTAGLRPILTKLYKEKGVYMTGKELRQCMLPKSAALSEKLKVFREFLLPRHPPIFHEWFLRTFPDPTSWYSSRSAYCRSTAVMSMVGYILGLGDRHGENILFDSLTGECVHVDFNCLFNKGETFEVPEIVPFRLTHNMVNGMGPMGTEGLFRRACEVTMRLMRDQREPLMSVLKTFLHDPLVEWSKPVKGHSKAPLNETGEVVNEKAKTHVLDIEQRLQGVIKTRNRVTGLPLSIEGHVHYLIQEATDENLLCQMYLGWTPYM
Sequence of Phosphatidylinositol 4,5-bisphosphate 3-kinase catalytic subunit alpha isoform (P42336 whole entry, canonical isoform): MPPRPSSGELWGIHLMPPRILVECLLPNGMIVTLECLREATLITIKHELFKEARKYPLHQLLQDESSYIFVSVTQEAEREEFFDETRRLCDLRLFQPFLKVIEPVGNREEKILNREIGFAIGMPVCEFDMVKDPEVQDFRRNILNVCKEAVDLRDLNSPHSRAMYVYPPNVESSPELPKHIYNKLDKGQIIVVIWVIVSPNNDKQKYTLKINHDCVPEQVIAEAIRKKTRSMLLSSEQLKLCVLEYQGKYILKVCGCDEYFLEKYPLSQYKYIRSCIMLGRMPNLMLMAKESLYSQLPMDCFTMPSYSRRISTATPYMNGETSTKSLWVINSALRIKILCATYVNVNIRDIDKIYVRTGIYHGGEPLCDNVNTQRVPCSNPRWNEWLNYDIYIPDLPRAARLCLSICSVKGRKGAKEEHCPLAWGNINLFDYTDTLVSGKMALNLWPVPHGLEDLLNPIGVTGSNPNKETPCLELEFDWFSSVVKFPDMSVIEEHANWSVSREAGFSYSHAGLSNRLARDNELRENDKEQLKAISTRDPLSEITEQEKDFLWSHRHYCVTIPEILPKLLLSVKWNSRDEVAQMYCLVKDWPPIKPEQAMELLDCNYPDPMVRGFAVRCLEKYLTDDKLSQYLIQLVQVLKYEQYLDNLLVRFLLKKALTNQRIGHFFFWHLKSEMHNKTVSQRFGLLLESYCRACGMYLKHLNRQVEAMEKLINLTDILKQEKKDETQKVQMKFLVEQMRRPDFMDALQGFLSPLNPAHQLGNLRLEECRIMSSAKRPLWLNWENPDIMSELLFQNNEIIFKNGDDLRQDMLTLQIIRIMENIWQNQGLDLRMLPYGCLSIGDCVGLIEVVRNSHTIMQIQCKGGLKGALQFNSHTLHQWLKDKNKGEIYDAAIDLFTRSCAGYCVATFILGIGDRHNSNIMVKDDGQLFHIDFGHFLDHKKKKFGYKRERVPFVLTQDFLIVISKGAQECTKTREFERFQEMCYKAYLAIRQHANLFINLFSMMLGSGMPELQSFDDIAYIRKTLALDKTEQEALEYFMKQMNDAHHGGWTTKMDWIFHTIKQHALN

Regarding `O=c1cc(N2CCOCC2)oc2c1ccc1ccccc12`, the IC50 (in general, the concentration that inhibits the measured activity by half) in assay [1] is 6400 nM; in assay [2], 13000 nM; in assay [3], more than 100000 nM; in assay [4] it was more than 100000 nM.
In assay [5], `O=c1cc(N2CCOCC2)oc2c(-c3cccc4c3oc3ccccc34)cccc12` yielded an IC50 of 40 nM.
In assay [5], `CC(=O)c1ccc(-c2cccc3c(=O)cc(N4CCOCC4)oc23)s1` registered a concentration for half-maximal inhibition (IC50) of 800 nM.
Turning to `O=c1cc(N2CCOCC2)oc2c(-c3cccc4c3sc3ccccc34)cccc12`, the IC50 in assay [1] was 1700 nM; in assay [2], 5000 nM; in assay [3], more than 100000 nM; in assay [5], 20 nM; in assay [4], more than 100000 nM; in assay [6], 14 nM.
As for `O=c1cc(N2CCOCC2)oc2c(-c3ccc(CO)cc3)cccc12`, inhibition in assay [5] was half-maximal at 600 nM (IC50).
Still for that read-out and setting: next, `O=c1cc(N2CCOCC2)oc2c(-c3ccsc3)cccc12`: 300 nM; `O=c1cc(N2CCOCC2)oc2c(-c3cc4ccccc4s3)cccc12`: 800 nM; `O=c1cc(N2CCOCC2)oc2c(-c3cccs3)cccc12`: 300 nM.
Still for that read-out and setting: for `COc1ccc(-c2cccc3c(=O)cc(N4CCOCC4)oc23)cc1` the value was 900 nM; for `O=c1cc(N2CCOCC2)oc2ccccc12`, 1300 nM.
In the case of `CC1CN(c2cc(=O)c3ccc4ccccc4c3o2)CCO1` (stereo not drawn), the IC50 in assay [5] amounted to 190 nM.
As for `O=c1cc(N2CCOCC2)oc2c(-c3ccccc3)cccc12` [LY-294002], the IC50 in assay [1] is 2500 nM; in assay [3], more than 100000 nM; in assay [4], more than 100000 nM; in assay [6], 1200 nM.
